The term stoichiometry N denotes the number of molecules, sites or subunits per partner or assembly.

Assay [1] concerns the target T1, γ-secretase cleavage of C100-Flag (C99) (Homo sapiens, UniProt P05067).
T1 construct: C100 is C99 with an added N-terminal Met residue; made in house
Put plainly: γ-Secretase assay, C100-FLAG cleavage, AICD by anti-Flag Western blot. The class given is biochemical. Conditions: 30 nM LY411,575, 2 µM C100-Flag, 1 nM γ-secretase, Fig. S6A lane 7. Here is the method: The γ-secretase-dependent proteolysis assays with both substrates (C100-FLAG and HexaHis Notch 1 JM/TM) were performed in a weak zwitterionic detergent (CHAPSO, 3-[(3- cholamidopropyl)dimethylammonio]-2-hydroxy-1-propanesulfonate) solubilized conditions ([79], [80]). C100 is C99 with an added N-terminal Met residue. […] Proteolytic reactions were initiated by adding purified substrates (either C100-FLAG(79) or HexaHis-Notch 1 JM/TM(77)) and incubating at 37 °C (16 h for C100Flag and 4 h for HexaHis-Notch 1 JM/TM). Reactions were quenched with SDS, and the cleaved intracellular domain products (AICD-FLAG released from C100-FLAG or truncated intracellular domain (NICD) released from the proteolysis of Hexa-His Notch 1 JM/TM) were visualized by Western blot using specific primary antibodies, anti-FLAG antibody for FLAG-tagged AICD, and neoepitope-specific anti-V1744 antibody for NICD ([80], [83], [84]).

Assay [2] has as its target C99 (C-terminal 99 amino acid fragment of the human amyloid precursor protein), as used for IM-MS (human) (UniProt P05067). Put plainly: native MS; native ion mobility-mass spectrometry (IM-MS); 20 uM C99 in 100X CMC LMPG or DDMB micelles, 200 mM ammonium acetate pH 4.5; DMSO or 0-50 uM verteporfin, incubated in the dark overnight; micelles dissociated in the instrument.

T1 sequence (P05067 672-770 limits assumed): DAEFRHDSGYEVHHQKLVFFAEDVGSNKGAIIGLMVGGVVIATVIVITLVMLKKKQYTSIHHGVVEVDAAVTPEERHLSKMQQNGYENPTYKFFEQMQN
Sequence of C99 (C-terminal 99 amino acid fragment of the human amyloid precursor protein), as used for IM-MS (P05067 672-770): as the sequence (P05067 672-770 limits assumed) above

On to `C[C@H](NC(=O)[C@@H](O)c1cc(F)cc(F)c1)C(=O)N[C@@H]1C(=O)N(C)c2ccccc2-c2ccccc21` [LY411,575], for which, in assay [1], the “C100-Flag cleavage efficiency (Western blot)” value is on record as “fully”.
In the case of “C99 (C-terminal 99 amino acid fragment of the human amyloid precursor protein), as used for IM-MS (from UniProt P05067 672-770) (domain or fragment)”, in assay [2], the stoichiometry N came out at 2.
